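Assay format: 96-well plates, 48-hour exposure. Abbreviation: GI50, concentration required for 50% inhibition of growth.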 Calls of active or inactive are those of the source. No stated cut-off is given here; in the data, active = GI50 up to about 1.1 µM and inactive = higher.
Experiments:
Assay in all cases: NCI tumour cell line growth inhibition, 48 h
[1] = tested on: M14
[2] = tested on: COLO 205
[3] = tested on: CAKI-1
[4] = tested on: NCI-H522
[5] = tested on: LOX IMVI
[6] = tested on: NCI-H226
[7] = tested on: NCI-H460
[8] = tested on: SK-MEL-28
[9] = tested on: RXF 393
[10] = tested on: KM-20L2
[11] = tested on: Malme-3M
[12] = tested on: SF-295
[13] = tested on: KM12
[14] = tested on: HOP-18
[15] = tested on: OVCAR-5
[16] = tested on: SW-620
[17] = tested on: HCT-116
[18] = tested on: XF498
[19] = tested on: K562
[20] = tested on: SK-MEL-2
[21] = tested on: OVCAR-4
[22] = tested on: DLD-1
[23] = tested on: OVCAR-8
[24] = tested on: SF-268
[25] = tested on: HL-60
[26] = tested on: OVCAR-3
[27] = tested on: M19-MEL
[28] = tested on: DMS-273
[29] = tested on: MOLT-4
[30] = tested on: NCI-H23
[31] = tested on: SNB-78
[32] = tested on: UACC-257
[33] = tested on: EKVX
[34] = tested on: A549
[35] = tested on: 786-0
[36] = tested on: HCC 2998
[37] = tested on: SR
[38] = tested on: A498
[39] = tested on: SK-OV-3
[40] = tested on: UO-31
[41] = tested on: CCRF-CEM
[42] = tested on: SN12C
[43] = tested on: SF-539
[44] = tested on: UACC-62
[45] = tested on: HOP-62
[46] = tested on: ACHN
[47] = tested on: SK-MEL-5
[48] = tested on: LXFL 529
[49] = tested on: U-251
[50] = tested on: TK-10
[51] = tested on: SNB-75
[52] = tested on: SNB-19
[53] = tested on: HT-29
[54] = tested on: IGROV-1

Clc1cc(Cl)c2ns[s+]c2c1Cl
GI50 [1]: > 100 µM (inactive) | GI50 [2]: > 100 µM (inactive) | GI50 [3]: > 100 µM (inactive) | GI50 [4]: > 100 µM (inactive) | GI50 [5]: > 100 µM (inactive) | GI50 [6]: > 100 µM (inactive) | GI50 [7]: > 100 µM (inactive) | GI50 [8]: > 100 µM (inactive) | GI50 [9]: > 100 µM (inactive) | GI50 [10]: > 100 µM (inactive) | GI50 [11]: 37.8 µM (inactive) | GI50 [12]: > 100 µM (inactive) | GI50 [13]: > 100 µM (inactive) | GI50 [14]: 78.3 µM (inactive) | GI50 [15]: > 100 µM (inactive) | GI50 [16]: > 100 µM (inactive) | GI50 [17]: > 100 µM (inactive) | GI50 [18]: > 100 µM (inactive) | GI50 [19]: > 100 µM (inactive) | GI50 [20]: > 100 µM (inactive) | GI50 [21]: > 100 µM (inactive) | GI50 [22]: > 100 µM (inactive) | GI50 [23]: > 100 µM (inactive) | GI50 [24]: > 100 µM (inactive) | GI50 [25]: > 100 µM (inactive) | GI50 [26]: > 100 µM (inactive) | GI50 [27]: > 100 µM (inactive) | GI50 [28]: > 100 µM (inactive) | GI50 [29]: > 100 µM (inactive) | GI50 [30]: 0.132 µM (active) | GI50 [31]: 0.158 µM (active) | GI50 [32]: > 100 µM (inactive) | GI50 [33]: > 100 µM (inactive) | GI50 [34]: > 100 µM (inactive) | GI50 [35]: > 100 µM (inactive) | GI50 [36]: > 10 µM (inactive) | GI50 [37]: > 100 µM (inactive) | GI50 [38]: > 100 µM (inactive) | GI50 [39]: > 100 µM (inactive) | GI50 [40]: > 100 µM (inactive) | GI50 [41]: > 100 µM (inactive) | GI50 [42]: > 100 µM (inactive) | GI50 [43]: > 100 µM (inactive) | GI50 [44]: > 100 µM (inactive) | GI50 [45]: > 100 µM (inactive) | GI50 [46]: > 100 µM (inactive) | GI50 [47]: > 100 µM (inactive) | GI50 [48]: > 100 µM (inactive) | GI50 [49]: > 100 µM (inactive) | GI50 [50]: > 100 µM (inactive) | GI50 [51]: 43.4 µM (inactive) | GI50 [52]: > 100 µM (inactive) | GI50 [53]: > 100 µM (inactive) | GI50 [54]: > 100 µM (inactive)

From ChEMBL document CHEMBL1201862, “PubChem BioAssay data set” (2004)
